This note sets out measurements from US20240368147A1, “CYCLIN K DEGRADER” (ADLAI NORTYE BIOPHARMA CO., LTD., priority 2021, published 2024).

What is called IC50 is the concentration that gives 50% inhibition.

One assay concerns HGC27 (Human Gastric Cancer Cell). Description: HGC27 cell growth inhibition (CellTiter-Glo). It counts as cell-based. As to conditions: Homo sapiens, HGC-27, 24 h, HGC27 cells, 24 hours, CellTiter-Glo; read-out: HGC27 CTG IC50. Here is the method: Biological Activity Detection of HGC27 (Human Gastric Cancer Cell) Cell Growth Inhibition
This detection method is used to evaluate the cellular level biological activity of the compounds of the present disclosure.
Harvest HGC27 cells (purchased from Chinese Academy of Sciences), resuspend in complete culture medium and adjust the cell density to 0.2×10^6 cells per ml. Add 100 μL of cell suspension to each well into a 96-well plate and incubate overnight in a 37° C., 5% CO2 incubator. Prepare the compound to be tested and add it to the cell plate so that the maximum concentration of the compound is 10 μM. Set 8 concentration points according to 3-fold dilution. At the same time, set up a 100% inhibition control well, that is, a well with no cells added and only an equal volume of complete culture medium; and a 0% inhibition control well, that is, a cell well with 0.1% DMSO added. The above cell plate was cultured at 37° C. and 5% CO2 for 24 hours. Take out the cell culture plate, add 25 μl CellTiter-Glo® Luminescent Cell Viability reagent (promega cat #G7573) to each well, incubate in the dark for 10 minutes, transfer 100 μL to a white plate, and use Molecular Devices SpectraMax i3 to detect chemiluminescence. Data processing uses the following formula to calculate the inhibition rate: compound inhibition rate=(0% inhibition of control well signal−compound treatment well signal)/(0% inhibition of control well signal−100% inhibition of control well signal)*100%. The calculated data were fitted using graphpad prism software with four parameters and the corresponding IC50 was calculated.
According to the above detection method, the biological activity of the compound of the present disclosure was evaluated at the cellular level. Wherein, CR8 is a literature compound, which was purchased from Shanghai Bide Pharmaceutical.
For orientation: ATP-based viability assays read luminescence as a measure of living cells.
With `O[C@H]1CCCC[C@H]1Nc1nc(NCc2ccc(-c3ccccn3)cc2)ncc1C(F)(F)F` [Compound 156], the IC50 was 169 nM. For `OCc1cc(CO)nc(-c2ccc(CNc3ncc(C(F)(F)F)c(OC4COC4)n3)cc2)c1` [Compound 125], the IC50 was 191 nM. Regarding `N#Cc1ccnc(-c2ccc(CNc3ncc(C(F)(F)F)c(OC4COC4)n3)cc2)c1` [Compound 138], the IC50 amounted to 254 nM. Same read-out and setting: the figure for `C[C@H](CO)Oc1nc(NCc2ccc(-c3ccccn3)cc2)ncc1C(F)(F)F` [Compound 165] is 89 nM. For the molecule `NC(=O)[C@H](Nc1nc(NCc2ccc(-c3ccccn3)cc2)ncc1C(F)(F)F)C1CCC1` [Compound 211], the IC50 worked out at 110 nM. In the case of `NC(=O)[C@@H](CO)Nc1nc(NCc2ccc(-c3ccccn3)cc2)ncc1C(F)(F)F` [Compound 127], the half-maximal inhibitory concentration (IC50) was determined as 446 nM. The same measure, in the same setting: next, `Cc1cc(CO)nc(-c2ccc(CNc3ncc(C(F)(F)F)c(OC4COC4)n3)cc2)c1` [Compound 69]: 185 nM; `O[C@@H]1CCC[C@H]1Nc1nc(NCc2ccc(-c3ccccn3)cc2)ncc1C(F)(F)F` [Compound 70]: 160 nM.

With `C[C@@H](Nc1nc(NCc2ccc(-c3ccccn3)cc2)ncc1C(F)(F)F)C(=O)N(C)C` [Compound 192], the IC50 was determined as 25 nM. Consider `CC(C)[C@@H](Nc1nc(NCc2ccc(-c3ccccn3)cc2)ncc1C(F)(F)F)C(N)=O` [Compound 210], for which the IC50 turned out to be 34 nM. Take `CS(=O)(=O)c1cccc(-c2nc(NCc3ccc(-c4ccccn4)cc3)ncc2C(F)(F)F)c1` [Compound 146]: the IC50 was 281 nM. As for `C[C@@H](O)[C@@H](C)Oc1nc(NCc2ccc(-c3ccccn3)cc2)ncc1C(F)(F)F` [Compound 131], the IC50 was 100 nM. Turning to `O[C@H]1COC[C@H]1Oc1nc(NCc2ccc(-c3ccccn3)cc2)ncc1C(F)(F)F` [Compound 151], the IC50 was found to be 197 nM. Still for that read-out and setting: next, `CC[C@@H](Nc1nc(NCc2ccc(-c3cc(CO)cc(CO)n3)cn2)ncc1C(F)(F)F)C(N)=O` [Compound 176]: 171 nM. Turning to `C[C@@H](O)[C@@H](CO)Nc1nc(NCc2ccc(-c3cc(CO)cc(CO)n3)cc2)ncc1C#N` [Compound 175], the IC50 was determined as 406 nM.

Turning to `CC[C@H](CO)Nc1nc(NCc2ccc(-c3ccccn3)cc2)ncc1C(F)(F)F` [Compound 25], the IC50 stood at 158 nM. Take `C[C@@H](Nc1ncc(C(F)(F)F)c(OC2COC2)n1)c1ccc(-c2cc(CO)cc(CO)n2)cc1` [Compound 181]: the IC50 was 63 nM. As for `C[C@@H](O)[C@@H](CO)Nc1nc(NCc2ccc(-c3ccccn3)cc2)ncc1C(F)(F)F` [Compound 126], the IC50 was determined as 170 nM.

With `C=Cc1ccnc(-c2ccc(CNc3ncc(C(F)(F)F)c(OC4COC4)n3)cc2)c1` [Compound 129], the IC50 is 77 nM. Still for that read-out and setting: next, `OCC(CO)Nc1nc(NCc2ccc(-c3ccccn3)cc2)ncc1C(F)(F)F` [Compound 104]: 275 nM; `C[C@@H](O)[C@@H](CO)Nc1nc(NCc2ccc(-c3cc(CO)cc(CO)n3)cc2)ncc1C(F)(F)F` [Compound 170]: 48 nM; `Cc1cc(CO)cc(-c2ccc(CNc3ncc(C(F)(F)F)c(OC4COC4)n3)cc2)n1` [Compound 64]: 251 nM. With `C[C@@H](O)[C@@H](C)Oc1nc(NCc2ccc(-c3cc(CO)cc(CO)n3)cc2)ncc1C(F)(F)F` [Compound 168], the IC50 was 60 nM. Regarding `CC[C@@H](Nc1nc(NCc2ccc(-c3cc(CO)cc(CO)n3)cc2)ncc1C(F)(F)F)[C@@H](C)O` [Compound 198], the IC50 is 439 nM. For the molecule `N#Cc1cc(CO)nc(-c2ccc(CNc3ncc(C(F)(F)F)c(OC4COC4)n3)cc2)c1` [Compound 179], the IC50 is 108 nM.

Still in this assay, the particulars now being: Homo sapiens, HGC-27, 24 h, read-out: HGC27 CTG IC50.
Regarding `FC(F)(F)c1cnc(NCc2ccc(-c3cnccn3)cc2)nc1OC1COC1` [Compound 21], the IC50 was 155 nM. Consider `C[C@@H](O)[C@@H](Nc1nc(NCc2ccc(-c3ccccn3)cc2)ncc1C(F)(F)F)C(N)=O` [Compound 213], for which the IC50 came to 123 nM. For the molecule `C[C@@H](O)[C@H](Nc1nc(NCc2ccc(-c3ccccn3)cc2)ncc1C(F)(F)F)C(N)=O` [Compound 207], the IC50 was determined as 103 nM.
